The values below come from PMC9011347, “Small-Molecule Inhibitors Targeting Lipolysis in Human Adipocytes” (Journal of the American Chemical Society, 2022).

Each structure is given as a SMILES string. Read-outs that look alike come from different tables or passages of the source.

In this assay the test system is human Simpson–Golabi–Behmel syndrome (SGBS) adipocytes. Put plainly: Lipolysis in SGBS adipocytes (FA, glycerol release, DAG content). In kind it is cell-based. The following applies: for IC50: Homo sapiens, 1 h preincubation, isoproterenol 1 μM. The procedure: Figure 3 NG-497 inhibits lipolysis in human SGBS and primary human adipocytes. SGBS adipocytes were preincubated with NG-497 for 1 h at the indicated concentrations. Subsequently, lipolysis was stimulated with isoproterenol (1 μM) and (a) FA and (b) glycerol release was determined after 1 h using commercial kits. (c) Dose-dependent inhibition of isoproterenol-stimulated FA release from SGBS adipocytes by the HSL inhibitor 76-068 (HSLi). […] (e) DAG accumulation in SGBS adipocytes was analyzed by thin-layer chromatography (TLC) following 1 h incubation with HSLi (25 μM), NG-497 (40 μM), and a combination of both inhibitors. (f) Primary human adipocytes were prelabeled with 1 μCi [9,10-^3H] oleic acid per well for 12 h. Subsequently, basal and Forskolin (5 μM)-stimulated release of radioactivity was determined via liquid scintillation over a period of 2 h in the presence or absence of NG-497 (40 μM). FA release was calculated based on FA concentrations in conditioned media after 2 h as determined using a commercial kit. (g) Primary human adipocytes were preincubated in the presence or absence of NG-497 (40 μM) for 1 h. Subsequently, the medium was changed and FA release was monitored over a period of 3 h under the indicated conditions. Data are presented as mean ± SD. Statistical significance was determined via ANOVA followed by Bonferroni post hoc test (^#p < 0.05; ^##p < 0.01; ^###p < 0.001). TEXT PRINTED IN THE PICTURE: (a) NG-497: IC50 (μM) 1.5 ± 0.5 | (b) NG-497: IC50 (μM) 1.5 ± 0.5 | (c) HSLi: IC50 (nM) 100 ± 15 | (d) NG-497: IC50 (μM) 0.5 ± 0.1 […]
Lipidomic analysis. HepG2 cells were treated for 3 hours with 40 µM NG-497 or DMSO as control. Subsequently, cells were washed three times with PBS, harvested, and extracted with 700 µl MTBE:MeOH (10:3, v:v) for 1 hour at 4 °C on a Thermomix shaker at 1,400 rpm. 200 µl H2O were added, shaken for another 20 min, centrifuged for 10 min at 20,000 g for phase separation.
500 µl of the organic phase was transferred and evaporated under a stream of nitrogen. […] The aqueous phase was dried, the protein pellet incubated overnight with 400 µl NaOH/SDS (0.3 M/0.1%) and total protein content analyzed by the BCA protein assay (Thermo Fisher Scientific) according to the manufacturer’s instructions.
Lipid samples were separated on an Agilent 1290 Infinite II UHPLC with gradient elution over a Zorbax Extend-C18 reversed phase column (2.1 x 50 mm, 1.8µm) at 50°C. […] Samples were analyzed on an Agilent 6560 Ion Mobility Q-ToF mass spectrometer in Qtof-only mode over a scan range of 100 to 1700 m/z in negative mode and 150 to 1700 m/z in positive mode with automatic MS/MS generation. All samples were analyzed in triplicates using iterative acquisition mode to increase the number of MS/MS spectra for better annotation. […]

The term IC50 denotes the concentration that inhibits the measured activity by half. In the case of `CCOc1ccc(-c2cc(OC)cc(C(=O)OC(C)C)n2)cc1` [NG-497], the IC50 worked out at 1.5 µM (1 h, read-out: IC50 of isoproterenol-stimulated FA release) and 1.5 µM (1 h, read-out: IC50 of isoproterenol-stimulated glycerol release). For the same molecule, the “DAG accumulation under combined inhibition of HSL and ATGL” value (NG-497 40 μM combined with HSLi 25 μM, 1 h, TLC) was “prevented DAG accumulation”. Besides, the effect on lipolysis result (concentrations ≥10 μM) is on record as “almost completely abolished lipolysis”.
